Assay results: article PMC6835155, “Lessons from LIMK1 enzymology and their impact on inhibitor design” (Biochemical Journal, 2019)
Where a name gives a salt, the structure may show the parent alone. Read-outs that look alike come from different tables or passages of the source.

What was measured:
LIMK1KD [1] = molecular target: T1, LIMK1KD (Homo sapiens, UniProt P53667); assay: Differential (dynamic) scanning fluorimetry (DSF) assay, LIMK1KD; format: binding; conditions: 2 µM LIMK1KD, compound 10 µM, single shot; for ΔTm at 10 µM: read-out: TM Shift LIMK1 (K)
T1 construct: His6 (N, cleaved yes); made in house; host or cells: baculovirus; Sf9 for virus, TriEx insect cells for expression

LIMK1KD [2] = molecular target: T1, LIMK1KD; assay: RapidFire mass spec kinase activity assay (CFL1 phosphorylation); format: biochemical; conditions: 40 nM LIMK1KD, 2 µM CFL1, 800 µM ATP, 60 min; read-out: LIMK1 IC50
LIMK2KD = molecular target: T2, LIMK2KD (Homo sapiens, UniProt P53671); assay: Differential (dynamic) scanning fluorimetry (DSF) assay, LIMK2KD; format: binding
T2 construct: The cDNA coding for LIMK2 residues 330 to 632 was PCR amplified; His6 (N, cleaved yes); made in house; host or cells: baculovirus; Sf9 for virus, TriEx insect cells for expression

LIMK1 = conditions: cited from earlier work
[3] = LIMK2KD, compound 10 µM, single shot, 10 µM
[4] = LIMK2KD, compound 10 µM, single shot, read-out: TM Shift LIMK2 (K)
[5] = LIMK2KD, compound 10 µM, single shot

T1 sequence (P53667 330-637): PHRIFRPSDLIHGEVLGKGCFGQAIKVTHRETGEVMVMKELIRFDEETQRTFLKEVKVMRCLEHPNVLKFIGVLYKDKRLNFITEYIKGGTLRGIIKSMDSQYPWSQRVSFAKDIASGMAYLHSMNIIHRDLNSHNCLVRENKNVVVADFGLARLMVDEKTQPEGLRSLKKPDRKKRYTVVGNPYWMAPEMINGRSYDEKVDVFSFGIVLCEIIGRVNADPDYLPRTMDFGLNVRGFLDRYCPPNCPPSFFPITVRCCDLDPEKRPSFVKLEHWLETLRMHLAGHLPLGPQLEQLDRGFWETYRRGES
T2 sequence (P53671 330-632): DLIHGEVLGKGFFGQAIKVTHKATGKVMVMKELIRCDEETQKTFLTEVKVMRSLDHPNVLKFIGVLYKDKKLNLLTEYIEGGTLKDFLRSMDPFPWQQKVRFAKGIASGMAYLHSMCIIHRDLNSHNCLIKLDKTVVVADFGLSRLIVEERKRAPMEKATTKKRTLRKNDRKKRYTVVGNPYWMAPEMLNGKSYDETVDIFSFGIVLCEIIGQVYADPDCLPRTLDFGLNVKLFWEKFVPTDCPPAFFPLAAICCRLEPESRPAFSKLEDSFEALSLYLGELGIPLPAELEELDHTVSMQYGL

| Compound | TM Shift LIMK1 (K) (LIMK1KD [1]) | ΔTm at 10 µM (LIMK1KD [1]) | ΔTm at 10 µM (LIMK2KD; [4]) | further results |
| --- | --- | --- | --- | --- |
| CC(C)(C)c1nc(-c2cccc(NS(=O)(=O)c3c(F)cccc3F)c2F)c(-c2ccnc(N)n2)s1 [Dabrafenib (GSK2118436), Dabrafenib] | 10 K | 10.3 °C | 11.1 °C | IC50 (LIMK1KD [2]): 14 nM; TM Shift LIMK2 (K) (LIMK2KD; [3]): 11 K |
| Cc1c[nH]c2ncnc(N3CCC(CN)(C(=O)Nc4cccc(OC(=O)N(C)C)c4)CC3)c12 [LX-7101] |  |  |  | IC50 (LIMK1; read-out: LIMK1 IC50): 32 nM |
| CNC(=O)c1cc(Oc2ccc(NC(=O)Nc3cc(C(C)(C)C)nn3-c3ccc4ncccc4c3)c(F)c2)ccn1 [DCC-2036 (Rebastinib), Rebastinib] |  | 10 °C | 4.8 °C | IC50 (LIMK1KD [2]): 75 nM |
| Cc1cn(-c2cc(NC(=O)c3ccc(C)c(Nc4nccc(-c5cccnc5)n4)c3)cc(C(F)(F)F)c2)cn1 [Nilotinib (AMN-107), Nilotinib] |  | 0.5 °C | 0.4 °C |  |
| Clc1ccc(C2(c3ccc(-c4cn[nH]c4)cc3)CCNCC2)cc1 [AT7867] | 0.9 K |  |  | TM Shift LIMK2 (K) (LIMK2KD; [5]): 1.4 K |
| Cc1ccc(-n2nc(C(C)(C)C)cc2NC(=O)Nc2ccc(OCCN3CCOCC3)c3ccccc23)cc1 [Doramapimod] | -0.1 K |  | 0.9 °C | TM Shift LIMK1 (K) (LIMK1KD [1]; listed as BIRB 796 (Doramapimod)): 0.5 K; TM Shift LIMK2 (K) (LIMK2KD; [3]): 0.7 K |
| COc1cc(O)c2c(c1)/C=C/C[C@H](O)[C@H](O)C(=O)/C=C\C[C@H](C)OC2=O [(5Z)-7-Oxozeaenol] | 2.8 K |  |  | TM Shift LIMK2 (K) (LIMK2KD; [5]): 0.7 K |
| O=S(=O)(c1cccc2cnccc12)N1CCCNCC1 [Fasudil (HA-1077) HCl, Fasudil] |  | 0.8 °C | 0.9 °C |  |
| CN1CCN(C2CCN(C(=O)Nc3cc(Oc4ccc(NC(=O)C5(C(=O)Nc6ccc(F)cc6)CC5)c(F)c4)ccn3)CC2)CC1 [Golvatinib (E7050), Golvatinib] |  | 3 °C | 1 °C |  |
| CNC(=O)c1nn(C)c2c1C(C)(C)Cc1cnc(Nc3ccc(N4CCN(C)CC4)cc3)nc1-2 [Milciclib (PHA-848125), Milciclib] |  | 0.2 °C | 0.6 °C |  |
| CCN(CCO)CCCOc1ccc2c(Nc3cc(CC(=O)Nc4cccc(F)c4)[nH]n3)ncnc2c1 [AZD1152-HQPA, Barasertib] | 0.6 K |  |  | TM Shift LIMK1 (K) (LIMK1KD [1]; listed as Barasertib (AZD1152-HQPA)): 0.2 K; TM Shift LIMK2 (K) (LIMK2KD; [3]): 0.7 K; TM Shift LIMK2 (K) (LIMK2KD; LIMK2KD, compound 10 µM, single shot, listed as Barasertib (AZD1152-HQPA), 10 µM): -0.2 K |
| COc1cc2ncnc(Nc3cccc(Cl)c3)c2cc1OC [AG-1478 (Tyrphostin AG-1478), Tyrphostin AG-1478] |  | 1.4 °C | -0.2 °C |  |
| FC(F)(F)c1ccc(/C=C/c2nc(COc3ccc(CCCCn4ccnn4)cc3)co2)cc1 [Mubritinib (TAK 165), Mubritinib] |  | 0.6 °C | -0.4 °C |  |
| CS(=O)(=O)c1ccc(-c2cnc(N)c(C(=O)Nc3ccccc3)n2)cc1 [VE-821] |  | 0.8 °C | 1.5 °C |  |
| CCN1CCN(Cc2ccc(-c3cc4c(N[C@H](C)c5ccccc5)ncnc4[nH]3)cc2)CC1 [AEE788 (NVP-AEE788)] |  | 4.7 °C | 4.5 °C |  |
| O=C(Nc1cccc(Cl)c1)Nc1ncc(CCNc2ncnc3ccsc23)s1 [SNS-314 Mesylate] |  | -0.5 °C | 0.8 °C |  |
| CN1CC[C@H](c2c(O)cc(O)c3c(=O)cc(-c4ccccc4Cl)oc23)[C@H](O)C1 [Alvocidib] |  | 1.9 °C | 0.5 °C |  |

| Compound | TM Shift LIMK1 (K) (LIMK1KD [1]) | ΔTm at 10 µM (LIMK1KD [1]) | ΔTm at 10 µM (LIMK2KD; [4]) | further results |
| --- | --- | --- | --- | --- |
| CNC(=O)c1cc(COc2nnc(Nc3ccc(Cl)cc3)c3ccoc23)ccn1 [Telatinib] |  | -1.4 °C | 3.3 °C |  |
| CS(=O)(=O)N1CCN(Cc2cc3nc(-c4cccc5[nH]ncc45)nc(N4CCOCC4)c3s2)CC1 [Pictilisib] | 2.2 K |  |  | TM Shift LIMK2 (K) (LIMK2KD; [3]): 0.1 K |
| Cc1cc2c(F)c(Oc3ncnn4cc(OC[C@@H](C)OC(=O)[C@H](C)N)c(C)c34)ccc2[nH]1 [Brivanib Alaninate (BMS-582664), Brivanib Alaninate] |  | 0.7 °C | 0 °C |  |
| C=CCN(/C=C1/C(=O)O[C@H](COC)[C@@]2(C)C1=C(O)C(=O)C1=C2[C@H](OC(C)=O)C[C@]2(C)C(=O)CC[C@@H]12)CC=C [Sonolisib] |  | 0.7 °C | 0.6 °C |  |
| Cc1ccccc1-n1c(Cn2ncc3c(N)ncnc32)nc2cccc(C)c2c1=O [PIK-293] | 0.6 K |  |  | TM Shift LIMK2 (K) (LIMK2KD; [5]): 0.9 K |
| C[C@@H]1CCN(C(=O)CC#N)C[C@@H]1N(C)c1ncnc2[nH]ccc12 [Tofacitinib (CP-690550) Citrate, Tofacitinib] |  | -0.4 °C | 3.1 °C |  |
| C[C@@H]1COC(Nc2ccc3ncnc(Nc4ccc(OCc5nccs5)c(Cl)c4)c3c2)=N1 [Varlitinib] |  | 0.9 °C | 0.8 °C |  |
| CO[C@@H]1[C@H](N(C)C(=O)c2ccccc2)C[C@H]2O[C@]1(C)n1c3ccccc3c3c4c(c5c6ccccc6n2c5c31)C(=O)NC4 [Midostaurin] |  | 0.1 °C | 0 °C |  |
| O=C1NC(=O)/C(=C/c2ccc(-c3ccc(F)cc3O)o2)S1 [AS-252424] | -0.1 K |  |  | TM Shift LIMK2 (K) (LIMK2KD; [5]): 3.0 K |
| Cc1cnc(NC(=O)Nc2cc(Br)c(C)cc2OC[C@@H]2CNCCO2)cn1 [Rabusertib] | -1.1 K |  |  | TM Shift LIMK2 (K) (LIMK2KD; [3]): 0.2 K |
| CNC(=O)c1ccccc1Sc1ccc2c(/C=C/c3ccccn3)n[nH]c2c1 [Axitinib] |  | 2 °C | -0.7 °C |  |
| Cc1[nH]nc2ccc(-c3cncc(OC[C@@H](N)Cc4ccccc4)c3)cc12 [A-674563] | 0.8 K |  |  | TM Shift LIMK2 (K) (LIMK2KD; [5]): 0.2 K |
| CNC(=O)c1cc(Oc2ccc(NC(=O)Nc3ccc(Cl)c(C(F)(F)F)c3)cc2)ccn1 [Sorafenib Tosylate] | 1.7 K |  |  | ΔTm at 10 µM (LIMK2KD; read-out: TM Shift LIMK2 (K), LIMK2KD, compound 10 µM, single shot): 1.5 °C |
| C#Cc1cccc(Nc2ncnc3cc4c(cc23)OCCOCCOCCO4)c1 [Icotinib] |  | -0.2 °C | -0.6 °C |  |
| O=C1Nc2ccc(I)cc2/C1=C/c1cc(Br)c(O)c(Br)c1 [GW5074] | 0.0 K |  |  | TM Shift LIMK2 (K) (LIMK2KD; [5]): 5.6 K |
| COc1cc2nccc(Oc3ccc(NC(=O)Nc4cc(C)on4)c(Cl)c3)c2cc1OC [Tivozanib (AV-951), Tivozanib] |  | 1.1 °C | 1.5 °C |  |
| AZD4547 | -0.1 K |  |  | TM Shift LIMK2 (K) (LIMK2KD; [5]): -0.1 K |

Continued, in another order:

| TM Shift LIMK1 (K) (LIMK1KD [1]) | ΔTm at 10 µM (LIMK1KD [1]) | ΔTm at 10 µM (LIMK2KD; [4]) | Compound | further results |
| --- | --- | --- | --- | --- |
|  | 1 °C | 1.8 °C | C=CC(=O)Nc1cccc(Oc2nc(Nc3ccc(N4CCN(C)CC4)cc3OC)ncc2Cl)c1 [WZ4002] |  |
|  | 0.4 °C | 2.6 °C | CCc1nc(-c2cccc(C)c2)c(-c2ccnc(NC(=O)c3ccccc3)c2)s1 [TAK-715] |  |
|  | -0.5 °C | -1.3 °C | CCNC(=O)Nc1ccc(-c2nc3c(c(N4CCOC[C@@H]4C)n2)CCN(C2COC2)C3)cc1 [GDC-0349] |  |
|  | 0.4 °C | 2.8 °C | Cc1ccc2nc(NCCN)c3ncc(C)n3c2c1 [BMS-345541] |  |
| 2.0 K |  |  | CC(C)(C)n1nc(-c2ccc(Cl)cc2)c2c(N)ncnc21 [PP2] | TM Shift LIMK2 (K) (LIMK2KD; [5]): 2.4 K |
|  | 0.3 °C | 0.1 °C | O=C(Nc1ccc2[nH]nc(-c3ccncc3)c2c1)[C@@H]1CCN(CC(=O)N2CCN(c3ccc(-c4ncccn4)cc3)CC2)C1 [SCH772984] |  |
|  | 1.7 °C | 0.8 °C | O=C(c1ccc(/C=C/c2n[nH]c3ccccc23)cc1)N1CCNCC1 [KW-2449] |  |
|  | 1.2 °C | 2.6 °C | O=C1NC(=O)/C(=C/c2ccc3nccc(-c4ccncc4)c3c2)S1 [GSK1059615] |  |
|  | 0 °C | 0.4 °C | O=c1cc(N2CCOCC2)oc2c(-c3ccccc3)cccc12 [LY294002] |  |
|  | 0.8 °C | 1.6 °C | C#Cc1cccc(Nc2ncnc3cc(OC)c(OCCCCCCC(=O)NO)cc23)c1 [CUDC-101] |  |
|  | -0.4 °C | 1 °C | O=C(O)c1ccc(Nc2ncc3c(n2)-c2ccc(Cl)cc2C(c2c(F)cccc2F)=NC3)cc1 [MLN8054] |  |
|  | 0.7 °C | 1.4 °C | CCCCOc1c(C(=O)c2c(F)cc(C)cc2F)c[nH]c2nncc1-2 [BMS-265246] |  |
| 11 K | 11.1 °C | 9 °C | Cn1cc(-c2[nH]c3cc(NC(=O)[C@H](N)C4CCCCC4)cc4c3c2C=NNC4=O)cn1 [PF-477736] | IC50 (LIMK1KD [2]): 4.4 nM |
|  | -1 °C | 0 °C | FC(F)c1nc2ccccc2n1-c1nc(N2CCOCC2)nc(N2CCOCC2)n1 [ZSTK474] |  |
